The text below walks through data of US9617256B2 (priority 2007, dated 2017).

In assay [1] the test system is AECO063 (ATCC25922 bearing an acrAB mutation). Briefly: microbe, parasite or virus in culture. It counts as cell-based, E. coli. The note with it: Escherichia coli, ATCC25922, read-out: MIC AECO063. The gist of the method:
(§1)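 Incubation: 35° C., ambient air, 18-24 h. Medium: cation-adjusted Mueller-Hinton broth with 2-fold serial dilutions of drug. Inoculum: 3×10^5–7×10^5 CFU/mL final, per CLSI microdilution method.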

Assay [2] deals with APAE006 in the presence of 8 micrograms per milliliter of polymyxin B nonapeptide. It counts as cell-based, P. aeruginosa. The settings on record: in the presence of 8 micrograms per milliliter of polymyxin B nonapeptide. In outline: (§2)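 Minimum inhibitory concentrations followed CLSI broth microdilution guidelines: cation-adjusted Mueller-Hinton broth, 2-fold serial drug dilutions, final inoculum 3×10^5–7×10^5 CFU/mL, ambient air at 35° C. for 18-24 hours. Quality-control strains and levofloxacin monitored performance.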

Assay [3] relates to AABA1060 (clinical isolate of Acinetobacter baumannii). Briefly: MIC broth microdilution, AABA1060. It counts as cell-based. The settings on record: Acinetobacter baumannii, read-out: MIC AABA1060. The gist of the method: as §1
Background: In broth dilution the organism is exposed to a series of concentrations in liquid medium.

Assay [4] has as its system APAE006 (strain of P. aeruginosa in which all efflux pumps are inactivated). Briefly: microbe, parasite or virus in culture. It counts as cell-based. The settings on record: Pseudomonas aeruginosa, read-out: MIC APAE006, P. aeruginosa, all efflux pumps inactivated. In outline: as §2
The subject of assay [5] is AECO001 (ATCC25922). Briefly: MIC broth microdilution, AECO001. It counts as cell-based, E. coli. The note with it: Escherichia coli, ATCC25922, read-out: MIC AECO001. In outline: as §1
Assay [6] has as its system AECO001 HSA AGP. Briefly: MIC broth microdilution, AECO001 HSA AGP. The settings on record: Escherichia coli. It counts as cell-based, E. coli. The gist of the method: as §1
Assay [7] relates to ASAU001 (laboratory strain of S. aureus, ATCC29213). Briefly: MIC broth microdilution, ASAU001. It counts as cell-based. The note with it: Staphylococcus aureus, ATCC29213, read-out: MIC ASAU001. The gist of the method:
as §1

The subject of assay [8] is APAE001 (ATCC27853). Briefly: MIC broth microdilution, APAE001. It counts as cell-based, P. aeruginosa. The note with it: Pseudomonas aeruginosa, ATCC27853, read-out: MIC APAE001, APAE001 is ATCC27853. In outline: as §1

Values after ≈ are worked out from the molar mass of the structure shown. Some results are limits rather than exact numbers.

As for `C[C@@H](N)[C@H](NC(=O)c1ccc(/C=C/C#Cc2ccncc2)cc1)C(=O)NO` [Example 114-8], the MIC in assay [1] is below 2 µg/mL; in assay [3], 2 to 16 µg/mL (≈ 5.49 to 43.9 µM); in assay [4] it was below 2 µg/mL; in assay [5] it was below 2 µg/mL; in assay [6], 2 to 16 µg/mL (≈ 5.49 to 43.9 µM); in assay [7] it was 16 to 64 µg/mL (≈ 43.9 to 176 µM). The MIC in assay [8] was below 2 µg/mL. Besides, the “MIC APAE006 + PMBN” value in assay [2] was “A (MIC's of 2.0 μg/mL or less = A)”.
As to `C[C@@H](NC(=O)CNC1CC1)[C@H](NC(=O)c1ccc(C#CC#Cc2ccccc2)cc1)C(=O)NO` [Example 85-2], the MIC is below 2 µg/mL in assay [1]; 16 to 64 µg/mL (≈ 34.9 to 140 µM) in assay [3]; below 2 µg/mL in assay [4]; below 2 µg/mL in assay [5]; 2 to 16 µg/mL (≈ 4.36 to 34.9 µM) in assay [6]; 16 to 64 µg/mL (≈ 34.9 to 140 µM) in assay [7]. Moreover, in assay [8], the MIC lay within 2 to 16 µg/mL (≈ 4.36 to 34.9 µM). In addition, the “MIC APAE006 + PMBN” value in assay [2] was “A (MIC's of 2.0 μg/mL or less = A)”.
As for `C[C@@H](N)[C@H](NC(=O)c1ccc(C#CC#Cc2cccc(F)c2)cc1)C(=O)NO` [Example 82-5], the MIC is below 2 µg/mL in assay [1]; 2 to 16 µg/mL (≈ 5.27 to 42.2 µM) in assay [3]; below 2 µg/mL in assay [4]; below 2 µg/mL in assay [5]; 2 to 16 µg/mL (≈ 5.27 to 42.2 µM) in assay [6]; 2 to 16 µg/mL (≈ 5.27 to 42.2 µM) in assay [7]. The MIC in assay [8] is below 2 µg/mL. Also, in assay [2], the “MIC APAE006 + PMBN” value is given as “A (MIC's of 2.0 μg/mL or less = A)”.
Take `O=C(N[C@H](C(=O)NO)C1CC1)c1ccc(C#Cc2ccc(CN3CCOCC3)cc2)cc1` [Example 68-6, N—((S)-cyclopropyl-hydroxycarbamoyl-methyl)-4-(4-morpholin-4-ylmethyl-phenylethynyl)-benzamide]: the MIC is below 2 µg/mL in assay [1]; 16 to 64 µg/mL (≈ 36.9 to 148 µM) in assay [3]; below 2 µg/mL in assay [4]; below 2 µg/mL in assay [5]; 2 to 16 µg/mL (≈ 4.61 to 36.9 µM) in assay [6]; above 64 µg/mL in assay [7]. Besides, the MIC in assay [8] lay in the range of 2 to 16 µg/mL (≈ 4.61 to 36.9 µM). Besides, the “MIC APAE006 + PMBN” value in assay [2] was “A (MIC's of 2.0 μg/mL or less = A)”.
On to `CC(C)(N)C(NC(=O)c1ccc(C#Cc2ccc(CO)cc2)cc1)C(=O)NO` (centres unmarked) [Example 137-5], for which the MIC in assay [1] was below 2 µg/mL; in assay [3], 2 to 16 µg/mL (≈ 5.24 to 41.9 µM); in assay [4] it was below 2 µg/mL; in assay [5], below 2 µg/mL; in assay [6], 2 to 16 µg/mL (≈ 5.24 to 41.9 µM); in assay [7], 16 to 64 µg/mL (≈ 41.9 to 168 µM). In assay [8], the MIC was below 2 µg/mL. For the same compound, the “MIC APAE006 + PMBN” value in assay [2] is “A (MIC's of 2.0 μg/mL or less = A)”.
Take `C[C@@H](N)[C@H](NC(=O)c1ccc(CCc2ccc(CN3CCOCC3)cc2)cc1)C(=O)NO` [Example 136-1, N-((2S,3R)-3-amino-1-(hydroxyamino)-1-oxobutan-2-yl)-4-(4-(morpholinomethyl)phenethyl)benzamide]: the MIC in assay [1] is below 2 µg/mL; in assay [3], 16 to 64 µg/mL (≈ 36.3 to 145 µM); in assay [4], below 2 µg/mL; in assay [5], 2 to 16 µg/mL (≈ 4.54 to 36.3 µM); in assay [6] it was 16 to 64 µg/mL (≈ 36.3 to 145 µM); in assay [7] it was 16 to 64 µg/mL (≈ 36.3 to 145 µM). Also, the MIC in assay [8] is 2 to 16 µg/mL (≈ 4.54 to 36.3 µM). The “MIC APAE006 + PMBN” value in assay [2] is recorded as “A (MIC's of 2.0 μg/mL or less = A)”.
In the case of `C[C@@H](N)[C@H](NC(=O)c1ccc(/C=C/C#Cc2ccc(OC(F)(F)F)cc2)cc1)C(=O)NO` [Example 114-7], the MIC in assay [1] was below 2 µg/mL; in assay [3] it was 2 to 16 µg/mL (≈ 4.47 to 35.8 µM); in assay [4] it was 2 to 16 µg/mL (≈ 4.47 to 35.8 µM); in assay [5], 2 to 16 µg/mL (≈ 4.47 to 35.8 µM); in assay [6], 2 to 16 µg/mL (≈ 4.47 to 35.8 µM); in assay [7], 2 to 16 µg/mL (≈ 4.47 to 35.8 µM). Moreover, the MIC in assay [8] lay in the range of 2 to 16 µg/mL (≈ 4.47 to 35.8 µM). Further, the “MIC APAE006 + PMBN” value in assay [2] is on record as “A (MIC's of 2.0 μg/mL or less = A)”.
With `CC(C)(O)[C@H](NC(=O)c1ccc(/C=C/C#Cc2ccc(CN3CCOCC3)cc2)cc1)C(=O)NO` [Example 110-7], the MIC in assay [1] is below 2 µg/mL; in assay [3], below 2 µg/mL; in assay [4], below 2 µg/mL; in assay [5], below 2 µg/mL; in assay [6], 2 to 16 µg/mL (≈ 4.19 to 33.5 µM); in assay [7], above 64 µg/mL. Moreover, in assay [8], the MIC is 2 to 16 µg/mL (≈ 4.19 to 33.5 µM). For the same compound, the “MIC APAE006 + PMBN” value in assay [2] was “A (MIC's of 2.0 μg/mL or less = A)”.
Take `C[C@H](O)[C@H](NC(=O)c1ccc(C#C/C=C/c2ccc(CN3CCOCC3)cc2)cc1)C(=O)NO` [Example 96-2]: the MIC in assay [1] is below 2 µg/mL; in assay [3], 2 to 16 µg/mL (≈ 4.31 to 34.5 µM); in assay [4], below 2 µg/mL; in assay [5], below 2 µg/mL; in assay [6], 2 to 16 µg/mL (≈ 4.31 to 34.5 µM); in assay [7], 16 to 64 µg/mL (≈ 34.5 to 138 µM). In addition, the MIC in assay [8] lay within 2 to 16 µg/mL (≈ 4.31 to 34.5 µM). For the same compound, the “MIC APAE006 + PMBN” value in assay [2] is recorded as “A (MIC's of 2.0 μg/mL or less = A)”.
As for `C[C@@H](O)[C@H](NC(=O)c1ccc(C#C/C=C/c2ccc(CN3CCOCC3)cc2)cc1)C(=O)NO` [Example 96-1, N-((1S,2R)-2-Hydroxy-1-hydroxycarbamoyl-propyl)-4-[(E)-4-(4-morpholin-4-ylmethyl-phenyl)-but-3-en-1-ynyl]-benzamide], the MIC in assay [1] was below 2 µg/mL; in assay [3], 2 to 16 µg/mL (≈ 4.31 to 34.5 µM); in assay [4], below 2 µg/mL; in assay [5], below 2 µg/mL; in assay [6], below 2 µg/mL; in assay [7], above 64 µg/mL. Also, in assay [8], the MIC was 2 to 16 µg/mL (≈ 4.31 to 34.5 µM). In addition, in assay [2], the “MIC APAE006 + PMBN” value is “A (MIC's of 2.0 μg/mL or less = A)”.
On to `C[C@@H](N)[C@H](NC(=O)c1ccc(C#Cc2ccc(CS(C)(=O)=O)cc2)cc1)C(=O)NO` [Example 120-2], for which the MIC in assay [1] was below 2 µg/mL; in assay [3], 16 to 64 µg/mL (≈ 37.3 to 149 µM); in assay [4] it was below 2 µg/mL; in assay [5], 2 to 16 µg/mL (≈ 4.66 to 37.3 µM); in assay [6], 16 to 64 µg/mL (≈ 37.3 to 149 µM); in assay [7], 16 to 64 µg/mL (≈ 37.3 to 149 µM). Besides, the MIC in assay [8] is 2 to 16 µg/mL (≈ 4.66 to 37.3 µM). Moreover, the “MIC APAE006 + PMBN” value in assay [2] is given as “A (MIC's of 2.0 μg/mL or less = A)”.
In the case of `C[C@@H](O)[C@H](NC(=O)c1ccc(C#C/C=C/c2ccccc2)cc1)C(=O)NO` [Example 104-1, N-((1S,2R)-2-Hydroxy-1-hydroxycarbamoyl-propyl)-4-((E)-4-phenyl-but-3-en-1-ynyl)-benzamide], the MIC was below 2 µg/mL in assay [1]; 2 to 16 µg/mL (≈ 5.49 to 43.9 µM) in assay [3]; below 2 µg/mL in assay [4]; below 2 µg/mL in assay [5]; 2 to 16 µg/mL (≈ 5.49 to 43.9 µM) in assay [6]; 16 to 64 µg/mL (≈ 43.9 to 176 µM) in assay [7]. In addition, the MIC in assay [8] was in the range of 2 to 16 µg/mL (≈ 5.49 to 43.9 µM). Moreover, the “MIC APAE006 + PMBN” value in assay [2] was “A (MIC's of 2.0 μg/mL or less = A)”.
Consider `C[C@H](N)[C@H](NC(=O)c1ccc(C#Cc2ccc(CO)cc2)cc1)C(=O)NO` [Example 133-4], for which the MIC in assay [1] is below 2 µg/mL; in assay [3], above 64 µg/mL; in assay [4] it was below 2 µg/mL; in assay [5], 2 to 16 µg/mL (≈ 5.44 to 43.5 µM); in assay [6], 16 to 64 µg/mL (≈ 43.5 to 174 µM); in assay [7], above 64 µg/mL. The MIC in assay [8] is below 2 µg/mL. In addition, the “MIC APAE006 + PMBN” value in assay [2] was “A (MIC's of 2.0 μg/mL or less = A)”.
